Results as given in patent US9040725B2, “Benzocycloheptane and benzoxepine derivatives” (Janssen Pharmaceutica NV, priority 2008, dated 2015).
Counter-ions that a name gives are not always drawn. Like-named read-outs stand apart in the source and are kept apart here.

What was measured:
NMRI-mice = assay: Acceleration of gastric emptying and small intestinal propulsion in NMRI-mice; assay type: in vivo; conditions: for minimal effective dose: Mus musculus, sc
Description: Male NMRI-mice weighing around 25 gram were fasted for 20 h and had free access to drinking water. Test compounds were administered to the animals by subcutaneous route 30 min before they were given a test meal by oral gavage. The test meal consisted of 0.3 ml of a chocolate nutridrink solution (1.0 kcal/ml) containing phenol red marker (5 mg/ml). Fifteen min after administration of the meal, the mice were sacrificed by CO2 gas inhalation. The phenol red content remaining in the stomach (extracted from the stomach with NaOH) was determined at 557 nm in a spectrophotometer and expressed as extinction units. Small intestinal propulsion was determined as the distance traveled by the phenol red marker through the intestine and expressed as a percentage of total small intestinal length (from the pylorus to the ileo-cecal junction).
The lowest dose that was active for each parameter was noted as the lowest active dose (LAD). Table 12 discloses LAD values.

GHS1A-receptor = target: T1, GHS1A-receptor (Homo sapiens, UniProt Q92847); assay: Ghrelin-agonism in HEK293 cells (intracellular calcium, FLIPR); assay type: cell-based; conditions: calcium fluorescence (fluo-4 or Kit-3), EC50 in M
T1 construct: expressed in transfected cells; host or cells: HEK293
T1 sequence (Q92847 whole entry): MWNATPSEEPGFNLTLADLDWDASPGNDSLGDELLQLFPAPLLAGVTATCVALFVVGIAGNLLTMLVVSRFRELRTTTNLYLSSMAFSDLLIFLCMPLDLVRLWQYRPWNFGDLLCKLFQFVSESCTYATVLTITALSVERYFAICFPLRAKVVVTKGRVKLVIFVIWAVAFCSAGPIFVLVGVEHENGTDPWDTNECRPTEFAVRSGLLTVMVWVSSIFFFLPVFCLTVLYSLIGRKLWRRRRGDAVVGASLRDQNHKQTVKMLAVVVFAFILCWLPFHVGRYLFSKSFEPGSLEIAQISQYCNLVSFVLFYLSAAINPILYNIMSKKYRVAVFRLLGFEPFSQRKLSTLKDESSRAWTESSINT
Description: One day before the experiment, HEK293 cells, permanently transfected with the gene sequence for expression of the GHS1A-receptor, were seeded in poly-D-Lysine coated 96-well plates with clear bottom, and allowed to grow to […] of confluence on the next day.
Then, cells were incubated with the calcium-sensitive intracellular fluorescent probe fluo-4 or Kit-3 for 1 h at 37° C. Fluorescence representing free intracellular calcium in the cells was measured in a FLIPR-system (excitation at 488 nm, emission>520 nm). Test compounds were added to each well at the desired concentration and the fluorescence signal was simultaneously recorded in all wells. Release of intracellular calcium triggered by activation of the receptors upon addition of the test compound was measured as the fluorescence emitted from the complex of calcium and the fluorescent probe. The drug effect on fluorescence intensity was expressed relative to the maximal fluorescence intensity measured in cells exposed to the calcium-ionophore ionomycin.

[1] = lowest active dose, subcutaneous, 30 min before phenol red test meal, active when >60% of animals had phenol red front beyond 85% of small intestinal length, read-out: LAD (mg/kg) Small intestinal propulsion
[2] = lowest active dose, subcutaneous, 30 min before phenol red test meal, stomach content 15 min after meal, active when >60% of animals below 0.9 extinction units, read-out: LAD (mg/kg) Gastric emptying
[3] = HEK293 cells permanently transfected with GHS1A-receptor, read-out: pEC50 (converted)

Compound	EC50 (GHS1A-receptor; [3])	further results
CN(C)CCC[C@@]1(O)c2ccccc2CCC[C@@H]1c1ccc(Cl)cc1 (racemic) [Compound 1]	39.8 nM	minimal effective dose (NMRI-mice; [1]): 2.5 mg/kg; minimal effective dose (NMRI-mice; [2]): 2.5 mg/kg
Oc1ccc([C@H]2CCCc3ccccc3[C@]2(O)CCCN2CCOCC2)cc1 (racemic) [Compound 7]	> 10000 nM	
Cc1ccc([C@H]2CCOc3ccccc3[C@]2(O)CCCN(C)C)cn1 (racemic) [Compound 9]	794 nM	
Cc1ccc([C@H]2CCOc3ccccc3[C@]2(O)CCCN(C)Cc2ccccc2)cc1 (racemic) [Compound 10]	251 nM	
COc1cccc([C@H]2CCCc3ccccc3[C@]2(O)CCCN(C)C)c1 (racemic) [Compound 14, (±)cis-5-(3-Dimethylamino-propyl)-6-(3-methoxy-phenyl)-6,7,8,9-tetrahydro-5H-benzocyclohepten-5-ol oxalate]		minimal effective dose (NMRI-mice; read-out: LAD (mg/kg) Gastric emptying): 10 mg/kg; minimal effective dose (NMRI-mice; read-out: LAD (mg/kg) Small intestinal propulsion): > 10 mg/kg; EC50 (GHS1A-receptor; pEC50, HEK293 cells permanently transfected with GHS1A-receptor): 12.6 nM
CO[C@]1(CCCN(C)C)c2ccccc2CCC[C@@H]1c1ccc(Cl)cc1 (racemic) [Compound 15]	1580 nM	
Cc1ccc([C@H]2CCCc3ccccc3[C@]2(O)CCCN(C)C)cn1 (racemic) [Compound 16, (±)cis-5-(3-Dimethylamino-propyl)-6-(6-methyl-pyridin-3-yl)-6,7,8,9-tetrahydro-5H-benzocyclohepten-5-ol hydrochloride]	251 nM	minimal effective dose (NMRI-mice; [1]): > 10 mg/kg; minimal effective dose (NMRI-mice; [2]): 10 mg/kg
CNCCCC1(O)c2ccccc2CCCC1c1ccccc1 (racemic) [Compound 19]	200 nM	minimal effective dose (NMRI-mice; [1]): > 10 mg/kg; minimal effective dose (NMRI-mice; [2]): > 10 mg/kg
OC1(CCCN2CCCC2)c2ccccc2CCCC1c1ccccc1 (racemic) [Compound 21]	79.4 nM	minimal effective dose (NMRI-mice; [1]): > 10 mg/kg; minimal effective dose (NMRI-mice; [2]): > 10 mg/kg
CNCCCC1(O)c2ccccc2CCCC1c1cccc(C)c1 (racemic) [Compound 22]	39.8 nM	minimal effective dose (NMRI-mice; [1]): > 10 mg/kg; minimal effective dose (NMRI-mice; [2]): > 10 mg/kg
COCCN(C)CCCC1(O)c2ccccc2CCCC1c1cccc(C)c1 (racemic) [Compound 23]	31.6 nM	
Cc1cccc(C2CCCc3ccccc3C2(O)CCCN(C)Cc2ccccc2)c1 (racemic) [Compound 24]	3980 nM	
Cc1cccc(C2CCCc3ccccc3C2(O)CCCN2CCOCC2)c1 (racemic) [Compound 25]	1580 nM	
CC(=O)N1CCN(CCCC2(O)c3ccccc3CCCC2c2cccc(C)c2)CC1 (racemic) [Compound 26]	3160 nM	
CNCCCC1(O)c2ccccc2CCCC1c1ccc(C)cc1 (racemic) [Compound 27]	79.4 nM	minimal effective dose (NMRI-mice; [1]): > 10 mg/kg; minimal effective dose (NMRI-mice; [2]): > 10 mg/kg
Cc1ccc(C2CCCc3ccccc3C2(O)CCCN(C)C)cc1 (racemic) [Compound 29]	15.8 nM	minimal effective dose (NMRI-mice; [1]): 10 mg/kg; minimal effective dose (NMRI-mice; [2]): 10 mg/kg
COCCN(C)CCCC1(O)c2ccccc2CCCC1c1ccc(C)cc1 (racemic) [Compound 30]	79.4 nM	minimal effective dose (NMRI-mice; [1]): > 10 mg/kg; minimal effective dose (NMRI-mice; [2]): 10 mg/kg
CCN(CC)CCCC1(O)c2ccccc2CCCC1c1ccc(C)cc1 (racemic) [Compound 31]	25.1 nM	
Cc1ccc(C2CCCc3ccccc3C2(O)CCCN2CCCCC2)cc1 (racemic) [Compound 32]	1000 nM	

Compound	EC50 (GHS1A-receptor; [3])	further results
Cc1ccc(C2CCCc3ccccc3C2(O)CCCN2CCN(C)CC2)cc1 (racemic) [Compound 33]	3160 nM	
CN(C)CCCC1(O)c2ccccc2CCCC1c1ccc(O)cc1 (racemic) [Compound 35]	2000 nM	minimal effective dose (NMRI-mice; [1]): > 10 mg/kg; minimal effective dose (NMRI-mice; [2]): > 10 mg/kg
COCCN(C)CCCC1(O)c2ccccc2CCCC1c1ccc(O)cc1 (racemic) [Compound 37]	2000 nM	
CN(C)CCCC1(O)c2ccccc2CCCC1c1ccc(Br)cc1 (racemic) [Compound 38]	25.1 nM	minimal effective dose (NMRI-mice; [1]): > 10 mg/kg; minimal effective dose (NMRI-mice; [2]): > 10 mg/kg
CNCCCC1(O)c2ccccc2CCCC1c1cccc(Cl)c1 (racemic) [Compound 39]	50.1 nM	minimal effective dose (NMRI-mice; [1]): > 10 mg/kg; minimal effective dose (NMRI-mice; [2]): > 10 mg/kg
CCN(CC)CCCC1(O)c2ccccc2CCCC1c1cccc(Cl)c1 (racemic) [Compound 41]	7.94 nM	minimal effective dose (NMRI-mice; [1]): > 10 mg/kg; minimal effective dose (NMRI-mice; [2]): > 10 mg/kg
COCCN(C)CCCC1(O)c2ccccc2CCCC1c1cccc(Cl)c1 (racemic) [Compound 42]	50.1 nM	minimal effective dose (NMRI-mice; [1]): > 10 mg/kg; minimal effective dose (NMRI-mice; [2]): > 10 mg/kg
CCNCCCC1(O)c2ccccc2CCCC1c1ccc(Cl)cc1 (racemic) [Compound 44]	501 nM	
CC(C)NCCCC1(O)c2ccccc2CCCC1c1ccc(Cl)cc1 (racemic) [Compound 45]	794 nM	
CN(CCCC1(O)c2ccccc2CCCC1c1ccc(Cl)cc1)Cc1ccccc1 (racemic) [Compound 47]	5010 nM	
OC1CCN(CCCC2(O)c3ccccc3CCCC2c2ccc(Cl)cc2)C1 (racemic) [Compound 49]	79.4 nM	
OC1(CCCN2CCCCC2)c2ccccc2CCCC1c1ccc(Cl)cc1 (racemic) [Compound 50]	794 nM	
OC1(CCCN2CCNCC2)c2ccccc2CCCC1c1ccc(Cl)cc1 (racemic) [Compound 51]	1580 nM	
CN1CCN(CCCC2(O)c3ccccc3CCCC2c2ccc(F)cc2)CC1 (racemic) [Compound 55]	1580 nM	
OC1(CCCN2CCCCC2)c2ccccc2CCCC1c1ccc(F)cc1F (racemic) [Compound 59]	> 10000 nM	
CN(C)CCC[C@@]1(O)c2ccccc2OCC[C@@H]1c1ccccc1 (relative stereo) [Compound 8]	316 nM	
CN(C)CCCC1(O)c2ccccc2CCCC1c1ccc(Cl)cc1 (single isomer, unassigned) [Compound 5]	1000 nM	
CN(C)CCCC1(O)c2ccccc2CCCC1c1ccc(Cl)cc1 (single isomer, unassigned) [Compound 6]	10 nM	
GHRP-6 [reference compound]		LAD (mg/kg) Small intestinal propulsion (NMRI-mice; lowest active dose, subcutaneous, 30 min before phenol red test meal, active when >60% of animals had phenol red front beyond 85% of small intestinal length): 2.5 mg/kg; LAD (mg/kg) Gastric emptying (NMRI-mice; lowest active dose, subcutaneous, 30 min before phenol red test meal, stomach content 15 min after meal, active when >60% of animals below 0.9 extinction units): 0.63 mg/kg

Second part, led by results:

EC50 (GHS1A-receptor; [3])	Compound	further results
25.1 nM	CCN(CC)CCCC1(O)c2ccccc2CCCC1c1cccc(OC)c1 (racemic) [Compound 61]	
2510 nM	COc1cccc(C2CCCc3ccccc3C2(O)CCCN(C)Cc2ccccc2)c1 (racemic) [Compound 62]	
25100 nM	COc1ccc(C2CCCc3ccccc3C2(O)CCCN)cc1 (racemic) [Compound 64]	
794 nM	CNCCCC1(O)c2ccccc2CCCC1c1ccc(OC)cc1 (racemic) [Compound 65]	
> 31600 nM	COc1ccc(C2CCCc3ccccc3C2(O)CCCNCc2ccccc2)cc1 (racemic) [Compound 68]	
> 10000 nM	COc1ccc(C2CCCc3ccccc3C2(O)CCCN(C)Cc2ccccc2)cc1 (racemic) [Compound 69]	
1260 nM	COCCN(C)CCCC1(O)c2ccccc2CCCC1c1ccc(OC)cc1 (racemic) [Compound 70]	
15.8 nM	COCCN(C)CCCC1(O)c2ccccc2CCCC1c1ccc(Cl)c(OC)c1 (racemic) [Compound 75]	
1580 nM	CNCCCC1(O)c2ccccc2CCCC1c1ccc(OC)c(OC)c1 (racemic) [Compound 76]	
794 nM	COc1ccc(C2CCCc3ccccc3C2(O)CCCN(C)C)cc1OC (racemic) [Compound 77]	
2000 nM	COCCN(C)CCCC1(O)c2ccccc2CCCC1c1ccc(OC)c(OC)c1 (racemic) [Compound 79]	
1580 nM	CN(CCCC1(O)c2ccccc2CCCC1c1cnc2ccccc2c1)Cc1ccccc1 (racemic) [Compound 87]	
158 nM	COCCN(C)CCCC1(O)c2ccccc2CCCC1c1ccc2c(c1)OCO2 (racemic) [Compound 90]	
1000 nM	OC1CCN(CCCC2(O)c3ccccc3CCCC2c2ccc3c(c2)OCO3)C1 (racemic) [Compound 91]	
3980 nM	COc1cncc(C2CCOc3ccccc3C2(O)CCCN(C)C)c1 (racemic) [Compound 100]	
2000 nM	CCN(CC)CCCC1(O)c2ccccc2OCCC1c1cncc(OC)c1 (racemic) [Compound 101]	
6310 nM	CCN(CC)CCCC1(O)c2ccccc2OCCC1c1ccc(OC)nc1 (racemic) [Compound 103]	
2000 nM	CN(C)CCCC1(O)c2ccccc2CCCC1c1ccccc1 (single isomer, unassigned) [Compound 104]	
